# From patent US20240024488A1, “COMPOUNDS AND USES THEREOF” (Foghorn Therapeutics Inc., priority 2020, published 2024)
# What was measured:
# HiBit-BRM fusion protein = target: T1, HiBit-BRM fusion protein (Homo sapiens, UniProt P51531); assay: HiBiT-BRM cell-based degradation assay (Nano-Glo HiBiT Lytic Detection, 24 h); details: HeLa cell line expressing HiBiT-BRM; for DC50: read-out: BRM HiBit Degradation IC50
# T1 construct: expressed in transfected cells
# How it was run: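 Luminescence from reconstituted NanoBiT luciferase in lysed HeLa HiBiT-BRM cells served as the measure of remaining BRM after 24 h treatment. Compounds were tested from 30 μM final downward in 3-fold steps. DMSO and 2 μM of a standard BRM/BRG1 degrader defined the scale limits.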
# [1] = target: T2, HiBit-BRG1 fusion protein (Homo sapiens, UniProt P51532); assay: HiBiT-BRG1 cell-based degradation assay (Nano-Glo HiBiT Lytic Detection, 24 h); details: HeLa cell line expressing HiBit-BRG1 and LgBit; for Dmax: read-out: BRG1 HiBit Degradation Maximum (%); for DC50: read-out: BRMG1 HiBit Degradation IC50
# T2 construct: expressed in transfected cells
# T2 sequence (P51532 whole entry, the tested form may be a part): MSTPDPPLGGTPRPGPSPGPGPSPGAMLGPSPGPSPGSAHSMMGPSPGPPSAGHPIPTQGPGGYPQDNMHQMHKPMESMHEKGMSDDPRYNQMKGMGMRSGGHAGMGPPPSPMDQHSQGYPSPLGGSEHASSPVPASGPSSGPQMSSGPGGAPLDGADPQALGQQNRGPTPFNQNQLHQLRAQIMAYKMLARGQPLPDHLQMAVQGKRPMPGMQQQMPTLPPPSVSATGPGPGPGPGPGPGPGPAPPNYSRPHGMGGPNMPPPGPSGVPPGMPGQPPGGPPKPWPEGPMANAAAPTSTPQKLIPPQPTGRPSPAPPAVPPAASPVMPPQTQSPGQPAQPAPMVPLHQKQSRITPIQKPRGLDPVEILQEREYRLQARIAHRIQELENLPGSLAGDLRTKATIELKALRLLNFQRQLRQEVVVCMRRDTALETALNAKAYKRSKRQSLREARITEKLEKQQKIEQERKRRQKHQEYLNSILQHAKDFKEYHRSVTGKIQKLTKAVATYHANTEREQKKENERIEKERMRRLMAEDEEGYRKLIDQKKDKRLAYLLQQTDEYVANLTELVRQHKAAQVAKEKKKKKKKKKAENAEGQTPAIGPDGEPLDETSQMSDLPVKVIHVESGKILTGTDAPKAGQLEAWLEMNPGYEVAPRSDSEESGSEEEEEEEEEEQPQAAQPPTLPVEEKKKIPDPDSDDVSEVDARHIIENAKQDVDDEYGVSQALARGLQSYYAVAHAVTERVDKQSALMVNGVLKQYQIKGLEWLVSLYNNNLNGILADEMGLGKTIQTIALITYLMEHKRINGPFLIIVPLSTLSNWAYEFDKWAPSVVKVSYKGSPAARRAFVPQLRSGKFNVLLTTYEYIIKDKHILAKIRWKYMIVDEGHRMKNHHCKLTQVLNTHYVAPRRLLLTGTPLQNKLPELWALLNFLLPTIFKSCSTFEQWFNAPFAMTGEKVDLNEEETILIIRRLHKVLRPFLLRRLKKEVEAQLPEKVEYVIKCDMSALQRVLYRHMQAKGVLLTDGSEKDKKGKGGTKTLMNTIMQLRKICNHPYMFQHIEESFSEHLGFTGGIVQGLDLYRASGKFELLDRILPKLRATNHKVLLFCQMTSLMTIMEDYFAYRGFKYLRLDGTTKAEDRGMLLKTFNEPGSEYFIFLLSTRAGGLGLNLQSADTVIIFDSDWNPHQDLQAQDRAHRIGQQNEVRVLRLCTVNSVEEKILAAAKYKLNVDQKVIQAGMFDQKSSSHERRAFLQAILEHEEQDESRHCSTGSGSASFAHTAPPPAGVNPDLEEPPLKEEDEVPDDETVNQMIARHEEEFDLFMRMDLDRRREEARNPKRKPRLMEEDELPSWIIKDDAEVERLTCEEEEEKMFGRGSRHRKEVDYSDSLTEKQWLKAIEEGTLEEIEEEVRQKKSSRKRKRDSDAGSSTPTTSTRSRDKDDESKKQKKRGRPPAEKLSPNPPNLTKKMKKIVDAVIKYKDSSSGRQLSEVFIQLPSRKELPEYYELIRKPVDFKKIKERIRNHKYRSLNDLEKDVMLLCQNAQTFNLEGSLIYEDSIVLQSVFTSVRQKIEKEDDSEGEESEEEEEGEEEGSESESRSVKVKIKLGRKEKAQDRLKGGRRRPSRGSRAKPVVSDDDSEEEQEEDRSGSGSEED
# How it was run: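 Percent degradation derived from lytic HiBiT signal, normalized to DMSO-treated cells and to cells given 2 μM of a known BRM/BRG1 degrader. The HeLa line stably expressed HiBit-BRG1 and LgBit; treatment lasted 24 h at 5000 cells per well.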
# T1 sequence (P51531 whole entry, the tested form may be a part): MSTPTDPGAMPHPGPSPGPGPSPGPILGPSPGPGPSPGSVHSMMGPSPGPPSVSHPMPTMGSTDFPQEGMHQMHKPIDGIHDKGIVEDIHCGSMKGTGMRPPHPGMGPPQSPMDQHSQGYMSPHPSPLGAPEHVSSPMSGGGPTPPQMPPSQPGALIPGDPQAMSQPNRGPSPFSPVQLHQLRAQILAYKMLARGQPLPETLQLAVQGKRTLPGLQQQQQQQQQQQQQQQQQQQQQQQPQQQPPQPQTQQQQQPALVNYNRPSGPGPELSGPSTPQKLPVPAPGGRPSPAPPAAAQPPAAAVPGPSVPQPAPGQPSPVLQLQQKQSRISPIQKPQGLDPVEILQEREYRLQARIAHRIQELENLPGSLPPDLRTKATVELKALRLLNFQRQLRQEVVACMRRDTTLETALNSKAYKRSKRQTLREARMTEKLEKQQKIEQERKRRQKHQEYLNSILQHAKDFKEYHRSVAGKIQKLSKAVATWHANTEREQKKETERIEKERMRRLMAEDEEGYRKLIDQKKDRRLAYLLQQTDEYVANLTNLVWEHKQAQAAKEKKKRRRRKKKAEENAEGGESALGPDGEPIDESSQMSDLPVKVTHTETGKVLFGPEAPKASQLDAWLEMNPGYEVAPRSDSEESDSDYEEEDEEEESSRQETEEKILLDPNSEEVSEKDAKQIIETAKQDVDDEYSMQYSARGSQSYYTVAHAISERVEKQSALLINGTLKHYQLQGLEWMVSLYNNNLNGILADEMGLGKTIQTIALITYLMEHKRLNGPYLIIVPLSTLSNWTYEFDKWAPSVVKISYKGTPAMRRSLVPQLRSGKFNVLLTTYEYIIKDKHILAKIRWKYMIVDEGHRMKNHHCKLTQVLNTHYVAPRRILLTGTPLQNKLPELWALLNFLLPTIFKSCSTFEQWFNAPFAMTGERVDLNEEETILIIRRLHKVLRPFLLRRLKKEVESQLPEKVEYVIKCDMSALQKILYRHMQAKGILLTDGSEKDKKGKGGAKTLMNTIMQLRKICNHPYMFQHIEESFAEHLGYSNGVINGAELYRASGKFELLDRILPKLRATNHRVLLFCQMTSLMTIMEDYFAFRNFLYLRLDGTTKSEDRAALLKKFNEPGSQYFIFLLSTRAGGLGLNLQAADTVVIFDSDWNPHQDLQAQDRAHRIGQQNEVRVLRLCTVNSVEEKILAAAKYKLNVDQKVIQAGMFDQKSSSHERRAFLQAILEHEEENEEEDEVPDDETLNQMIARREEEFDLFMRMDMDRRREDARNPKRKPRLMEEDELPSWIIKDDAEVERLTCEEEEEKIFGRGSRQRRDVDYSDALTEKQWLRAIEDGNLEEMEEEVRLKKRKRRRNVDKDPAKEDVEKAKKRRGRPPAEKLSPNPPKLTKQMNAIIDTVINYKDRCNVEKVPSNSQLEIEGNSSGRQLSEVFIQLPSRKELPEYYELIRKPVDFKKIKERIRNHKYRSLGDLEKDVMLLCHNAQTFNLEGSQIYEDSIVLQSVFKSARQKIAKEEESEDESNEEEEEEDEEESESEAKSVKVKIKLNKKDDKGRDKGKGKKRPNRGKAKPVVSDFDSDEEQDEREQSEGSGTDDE
smiles,measurement,setting,value
"Cc1ncsc1-c1ccc([C@H](C)NC(=O)[C@@H]2C[C@@H](O)CN2C(=O)[C@H](c2cc(CCCN3CC(c4cc5cc(-c6ccccc6O)nnc5[nH]4)C3)no2)C(C)C)cc1 (single isomer, unassigned) [Compound 202]",BRM HiBit Degradation Maximum (%),HiBit-BRM fusion protein,C (“C” indicates maximum degradation < 50%)
same,Dmax,[1],< 50%
"Cc1ncsc1-c1ccc([C@H](C)NC(=O)[C@@H]2C[C@@H](O)CN2C(=O)[C@@H](c2cc(C3CCN(C(=O)c4cc5cc(-c6ccccc6O)nnc5[nH]4)CC3)no2)C(C)C)cc1 (single isomer, unassigned) [Compound 203]",BRM HiBit Degradation Maximum (%),HiBit-BRM fusion protein,A (“A” indicates maximum degradation ≥ 75%)
same,DC50,HiBit-BRM fusion protein,> 100 nM
same,Dmax,[1],< 50%
"Cc1ncsc1-c1ccc([C@H](C)NC(=O)[C@@H]2C[C@@H](O)CN2C(=O)[C@@H](c2cc(CCCN3CC(c4cc5cc(-c6ccccc6O)nnc5[nH]4)C3)no2)C(C)C)cc1 (single isomer, unassigned) [Compound 204]",BRM HiBit Degradation Maximum (%),HiBit-BRM fusion protein,A (“A” indicates maximum degradation ≥ 75%)
same,DC50,HiBit-BRM fusion protein,> 100 nM
same,Dmax,[1],< 50%
"Cc1ncsc1-c1ccc(CNC(=O)[C@@H]2C[C@@H](O)CN2C(=O)[C@H](c2cc(OCCN3CC(c4cc5cc(-c6ccccc6O)nnc5[nH]4)C3)no2)C(C)C)cc1 (single isomer, unassigned) [Compound 207]",BRM HiBit Degradation Maximum (%),HiBit-BRM fusion protein,C (“C” indicates maximum degradation < 50%)
same,Dmax,[1],< 50%
"Cc1ncsc1-c1ccc(CNC(=O)[C@@H]2C[C@@H](O)CN2C(=O)[C@@H](c2cc(OCCN3CC(c4cc5cc(-c6ccccc6O)nnc5[nH]4)C3)no2)C(C)C)cc1 (single isomer, unassigned) [Compound 209]",BRM HiBit Degradation Maximum (%),HiBit-BRM fusion protein,A (“A” indicates maximum degradation ≥ 75%)
same,DC50,HiBit-BRM fusion protein,> 10 nM
same,Dmax,[1],< 50%
"Cc1ncsc1-c1ccc([C@H](C)NC(=O)[C@@H]2C[C@@H](O)CN2C(=O)[C@H](c2cc(OCCN3CC(c4cc5cc(-c6ccccc6O)nnc5[nH]4)C3)no2)C(C)C)cn1 (single isomer, unassigned) [Compound 218]",BRM HiBit Degradation Maximum (%),HiBit-BRM fusion protein,C (“C” indicates maximum degradation < 50%)
same,Dmax,[1],< 50%
"Cc1ncsc1-c1ccc([C@H](C)NC(=O)[C@@H]2C[C@@H](O)CN2C(=O)[C@@H](c2cc(OCCN3CC(c4cc5cc(-c6ccccc6O)nnc5[nH]4)C3)no2)C(C)C)cn1 (single isomer, unassigned) [Compound 219]",BRM HiBit Degradation Maximum (%),HiBit-BRM fusion protein,A (“A” indicates maximum degradation ≥ 75%)
same,DC50,HiBit-BRM fusion protein,> 100 nM
same,Dmax,[1],< 50%
"Cc1ncsc1-c1ccc([C@H](C)NC(=O)[C@@H]2C[C@@H](O)CN2C(=O)[C@@H](c2cc(OCCN3CCC[C@H]3c3c[nH]c4nnc(-c5ccccc5O)cc34)no2)C(C)C)cc1 (single isomer, unassigned) [Compound 227]",BRM HiBit Degradation Maximum (%),HiBit-BRM fusion protein,C (“C” indicates maximum degradation < 50%)
same,Dmax,[1],< 50%
"Cc1ncsc1-c1ccc([C@H](C)NC(=O)[C@@H]2C[C@@H](O)CN2C(=O)[C@@H](c2cc(OCCN3CCC[C@@H]3c3c[nH]c4nnc(-c5ccccc5O)cc34)no2)C(C)C)cc1 (single isomer, unassigned) [Compound 228]",BRM HiBit Degradation Maximum (%),HiBit-BRM fusion protein,C (“C” indicates maximum degradation < 50%)
same,Dmax,[1],< 50%
"Cc1ncsc1-c1ccc([C@H](C)NC(=O)[C@@H]2C[C@@H](O)CN2C(=O)[C@@H](c2cc(OCCN3CC[C@@H](c4c(C)[nH]c5nnc(-c6ccccc6O)cc45)C3)no2)C(C)C)cc1 (single isomer, unassigned) [Compound 232]",BRM HiBit Degradation Maximum (%),HiBit-BRM fusion protein,C (“C” indicates maximum degradation < 50%)
same,DC50,HiBit-BRM fusion protein,> 1000 nM
same,Dmax,[1],< 50%
"Cc1ncsc1-c1ccc([C@H](C)NC(=O)[C@@H]2C[C@@H](O)CN2C(=O)[C@@H](c2cc(N3CCN(CC45CC(c6cc7cc(-c8ccccc8O)nnc7[nH]6)(C4)C5)CC3)no2)C(C)C)cc1 (single isomer, unassigned) [Compound 233]",BRM HiBit Degradation Maximum (%),HiBit-BRM fusion protein,A (“A” indicates maximum degradation ≥ 75%)
same,DC50,HiBit-BRM fusion protein,> 10 nM
same,Dmax,[1],> 75%
same,DC50,[1],> 10 nM
"Cc1ncsc1-c1ccc([C@H](C)NC(=O)[C@@H]2C[C@@H](O)CN2C(=O)[C@@H](c2cc(N3CCN(C(=O)C(=O)N4CC(c5cc6cc(-c7ccccc7O)nnc6[nH]5)C4)CC3)no2)C(C)C)cc1 (single isomer, unassigned) [Compound 234]",BRM HiBit Degradation Maximum (%),HiBit-BRM fusion protein,A (“A” indicates maximum degradation ≥ 75%)
same,DC50,HiBit-BRM fusion protein,> 100 nM
same,Dmax,[1],< 50%
"Cc1ncsc1-c1ccc([C@H](C)NC(=O)[C@@H]2C[C@@H](O)CN2C(=O)[C@@H](c2cc(OCCCN3CC(c4cc5cc(-c6ccccc6O)nnc5[nH]4)C3)no2)C(C)C)cc1 (single isomer, unassigned) [Compound 237]",BRM HiBit Degradation Maximum (%),HiBit-BRM fusion protein,C (“C” indicates maximum degradation < 50%)
same,Dmax,[1],< 50%
"Cc1ncsc1-c1ccc([C@H](C)NC(=O)[C@@H]2C[C@@H](O)CN2C(=O)[C@@H](c2cc(OCCN3CC[C@H](c4c(C)[nH]c5nnc(-c6ccccc6O)cc45)C3)no2)C(C)C)cc1 (single isomer, unassigned) [Compound 241]",BRM HiBit Degradation Maximum (%),HiBit-BRM fusion protein,B (“B” indicates maximum degradation ≥ 50%)
same,DC50,HiBit-BRM fusion protein,> 10 nM
same,Dmax,[1],< 50%
"Cc1ncsc1-c1ccc([C@H](C)NC(=O)[C@@H]2C[C@@H](O)CN2C(=O)[C@@H](NC(=O)CCCCCCCCC(=O)N2CC(c3cc4cc(-c5ccccc5O)nnc4[nH]3)C2)C(C)(C)C)cc1 [Compound 1, (2S,4R)-4-hydroxy-1-((S)-2-(10-(3-(3-(2-hydroxyphenyl)-7H-pyrrolo[2,3-c]pyridazin-6-yl)azetidin-1-yl)-10-oxodecanamido)-3,3-dimethylbutanoyl)-N—((S)-1-(4-(4-methylthiazol-5-yl)phenyl)ethyl)pyrrolidine-2-carboxamide]",BRM HiBit Degradation Maximum (%),HiBit-BRM fusion protein,A (“A” indicates maximum degradation ≥ 75%)
same,DC50,HiBit-BRM fusion protein,> 100 nM
same,Dmax,[1],< 50%
"Cc1ncsc1-c1ccc(CNC(=O)[C@@H]2C[C@@H](O)CN2C(=O)[C@@H](NC(=O)CCCCCCCCC(=O)N2CC(c3cc4cc(-c5ccccc5O)nnc4[nH]3)C2)C(C)(C)C)cc1 [Compound 2, (2S,4R)-4-hydroxy-1-((S)-2-(10-(3-(3-(2-hydroxyphenyl)-7H-pyrrolo[2,3-c]pyridazin-6-yl)azetidin-1-yl)-10-oxodecanamido)-3,3-dimethylbutanoyl)-N-(4-(4-methylthiazol-5-yl)benzyl)pyrrolidine-2-carboxamide]",BRM HiBit Degradation Maximum (%),HiBit-BRM fusion protein,A (“A” indicates maximum degradation ≥ 75%)
same,DC50,HiBit-BRM fusion protein,> 100 nM
same,Dmax,[1],< 50%
"Cc1ncsc1-c1ccc(CNC(=O)[C@@H]2C[C@@H](O)CN2C(=O)[C@@H](NC(=O)CCCCCCC(=O)N2CC(c3cc4cc(-c5ccccc5O)nnc4[nH]3)C2)C(C)(C)C)cc1 [Compound 3, (2S,4R)-4-hydroxy-1-((S)-2-(8-(3-(3-(2-hydroxyphenyl)-7H-pyrrolo[2,3-c]pyridazin-6-yl)azetidin-1-yl)-8-oxooctanamido)-3,3-dimethylbutanoyl)-N-(4-(4-methylthiazol-5-yl)benzyl)pyrrolidine-2-carboxamide]",BRM HiBit Degradation Maximum (%),HiBit-BRM fusion protein,B (“B” indicates maximum degradation ≥ 50%)
same,DC50,HiBit-BRM fusion protein,> 1000 nM
same,Dmax,[1],< 50%
"Cc1ncsc1-c1ccc(CNC(=O)[C@@H]2C[C@@H](O)CN2C(=O)[C@@H](NC(=O)CCCCCCCCCCC(=O)N2CC(c3cc4cc(-c5ccccc5O)nnc4[nH]3)C2)C(C)(C)C)cc1 [Compound 4, (2S,4R)-4-hydroxy-1-((S)-2-(12-(3-(3-(2-hydroxyphenyl)-7H-pyrrolo[2,3-c]pyridazin-6-yl)azetidin-1-yl)-12-oxododecanamido)-3,3-dimethylbutanoyl)-N-(4-(4-methylthiazol-5-yl)benzyl)pyrrolidine-2-carboxamide]",BRM HiBit Degradation Maximum (%),HiBit-BRM fusion protein,A (“A” indicates maximum degradation ≥ 75%)
same,DC50,HiBit-BRM fusion protein,> 100 nM
same,Dmax,[1],< 50%
"Cc1ncsc1-c1ccc(CNC(=O)[C@@H]2C[C@@H](O)CN2C(=O)[C@@H](NC(=O)CCCCCCCCCC(=O)N2CC(c3cc4cc(-c5ccccc5O)nnc4[nH]3)C2)C(C)(C)C)cc1 [Compound 5, (2S,4R)-4-hydroxy-1-((S)-2-(11-(3-(3-(2-hydroxyphenyl)-7H-pyrrolo[2,3-c]pyridazin-6-yl)azetidin-1-yl)-11-oxoundecanamido)-3,3-dimethylbutanoyl)-N-(4-(4-methylthiazol-5-yl)benzyl)pyrrolidine-2-carboxamide]",BRM HiBit Degradation Maximum (%),HiBit-BRM fusion protein,A (“A” indicates maximum degradation ≥ 75%)
same,DC50,HiBit-BRM fusion protein,> 100 nM
same,Dmax,[1],< 50%
"Cc1ncsc1-c1ccc(CNC(=O)[C@@H]2C[C@@H](O)CN2C(=O)[C@@H](NC(=O)CCCC(=O)N2CC(c3cc4cc(-c5ccccc5O)nnc4[nH]3)C2)C(C)(C)C)cc1 [Compound 6, (2S,4R)-4-hydroxy-1-((S)-2-(5-(3-(3-(2-hydroxyphenyl)-7H-pyrrolo[2,3-c]pyridazin-6-yl)azetidin-1-yl)-5-oxopentanamido)-3,3-dimethylbutanoyl)-N-(4-(4-methylthiazol-5-yl)benzyl)pyrrolidine-2-carboxamide]",BRM HiBit Degradation Maximum (%),HiBit-BRM fusion protein,B (“B” indicates maximum degradation ≥ 50%)
same,DC50,HiBit-BRM fusion protein,> 1000 nM
same,Dmax,[1],> 75%
same,DC50,[1],> 1000 nM
"O=C1CCC(N2C(=O)c3cccc(OCCCCC(=O)N4CC(c5cc6cc(-c7ccccc7O)nnc6[nH]5)C4)c3C2=O)C(=O)N1 (stereo not drawn) [Compound 7, 2-(2,6-dioxopiperidin-3-yl)-4-((5-(3-(3-(2-hydroxyphenyl)-7H-pyrrolo[2,3-c]pyridazin-6-yl)azetidin-1-yl)-5-oxopentyl)oxy)isoindoline-1,3-dione]",BRM HiBit Degradation Maximum (%),HiBit-BRM fusion protein,B (“B” indicates maximum degradation ≥ 50%)
same,DC50,HiBit-BRM fusion protein,> 1000 nM
same,Dmax,[1],> 50%
same,DC50,[1],> 1000 nM
